# pIC50, pKi: −log10 of the molar value. Calls of active or inactive are those of the source. The rule behind the calls is not given here.
# Assays:
# [1] = molecular target: T1, Amine oxidase [flavin-containing] B (Homo sapiens, UniProt P27338); experiment: biochemical; format: cell-based, BTI-TN-5B1-4
# T1 sequence (P27338 whole entry): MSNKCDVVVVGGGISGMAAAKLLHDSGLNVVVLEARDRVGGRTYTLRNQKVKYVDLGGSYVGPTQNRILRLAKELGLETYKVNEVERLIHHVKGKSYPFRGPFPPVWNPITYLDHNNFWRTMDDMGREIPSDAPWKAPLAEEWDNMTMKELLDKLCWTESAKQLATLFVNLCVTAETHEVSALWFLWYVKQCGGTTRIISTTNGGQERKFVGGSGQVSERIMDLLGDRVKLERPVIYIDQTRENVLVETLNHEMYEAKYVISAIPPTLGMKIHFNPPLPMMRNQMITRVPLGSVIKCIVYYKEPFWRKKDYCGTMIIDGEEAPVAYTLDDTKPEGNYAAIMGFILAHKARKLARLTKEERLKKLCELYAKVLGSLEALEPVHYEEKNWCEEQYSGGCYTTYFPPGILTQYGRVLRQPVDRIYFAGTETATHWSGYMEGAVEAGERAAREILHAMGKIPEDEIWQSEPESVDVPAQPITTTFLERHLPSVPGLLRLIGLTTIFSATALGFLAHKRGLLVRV
# Description: Inhibition of human recombinant MAO-B expressed in baculovirus infected BTI-TN-5B1-4 insect cells using p-tyramine as substrate preincubated for 15 mins and measured after 45 mins by resorufin-based fluorescence assay
# [2] = species: Homo sapiens; experiment: Selectivity index, ratio of IC50 for human recombinant MAO-A expressed in baculovirus infected BTI-TN-5B1-4 insect cells to IC50 for human recombinant MAO-B expressed in baculovirus infected BTI-TN-5B1-4 insect cells
# [3] = molecular target: T2, Amine oxidase [flavin-containing] A (Rattus norvegicus, UniProt P21396)
# T2 sequence (P21396 whole entry): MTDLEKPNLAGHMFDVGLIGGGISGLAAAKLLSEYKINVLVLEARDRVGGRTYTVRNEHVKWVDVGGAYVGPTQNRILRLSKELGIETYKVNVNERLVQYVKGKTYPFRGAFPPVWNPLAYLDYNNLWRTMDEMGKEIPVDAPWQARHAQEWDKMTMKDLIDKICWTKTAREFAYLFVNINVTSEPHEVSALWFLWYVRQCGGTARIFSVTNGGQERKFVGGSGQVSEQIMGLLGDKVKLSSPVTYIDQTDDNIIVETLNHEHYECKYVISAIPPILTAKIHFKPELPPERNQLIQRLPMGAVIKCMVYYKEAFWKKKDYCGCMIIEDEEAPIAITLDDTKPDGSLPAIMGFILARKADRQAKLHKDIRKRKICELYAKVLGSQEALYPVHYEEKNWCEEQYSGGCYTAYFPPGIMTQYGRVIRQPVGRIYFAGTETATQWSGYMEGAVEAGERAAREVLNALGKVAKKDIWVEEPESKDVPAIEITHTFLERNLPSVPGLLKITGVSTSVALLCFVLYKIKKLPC
# Description: Inhibition of Sprague-Dawley rat liver MAO-A using p-tyramine as substrate preincubated for 15 mins and measured after 45 mins by resorufin-based fluorescence assay
# [4] = molecular target: T3, Amine oxidase [flavin-containing] B (Rattus norvegicus, UniProt P19643)
# T3 sequence (P19643 whole entry): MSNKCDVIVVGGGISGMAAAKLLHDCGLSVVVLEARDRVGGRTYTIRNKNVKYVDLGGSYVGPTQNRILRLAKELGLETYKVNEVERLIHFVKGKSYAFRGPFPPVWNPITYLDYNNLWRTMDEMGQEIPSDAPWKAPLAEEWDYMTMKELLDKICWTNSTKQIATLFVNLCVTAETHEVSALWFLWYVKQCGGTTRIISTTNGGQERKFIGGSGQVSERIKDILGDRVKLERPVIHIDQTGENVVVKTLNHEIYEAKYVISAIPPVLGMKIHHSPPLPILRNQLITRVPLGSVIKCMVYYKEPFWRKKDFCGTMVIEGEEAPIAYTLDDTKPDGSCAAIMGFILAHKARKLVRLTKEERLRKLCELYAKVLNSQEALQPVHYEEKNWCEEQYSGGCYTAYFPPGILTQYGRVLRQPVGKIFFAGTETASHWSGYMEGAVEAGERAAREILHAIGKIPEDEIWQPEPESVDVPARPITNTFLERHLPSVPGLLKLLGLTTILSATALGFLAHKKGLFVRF
# Description: Inhibition of Sprague-Dawley rat liver MAO-B using p-tyramine as substrate preincubated for 15 mins and measured after 45 mins by resorufin-based fluorescence assay
# [5] = Selectivity ratio of IC50 for Sprague-Dawley rat liver MAO-B to human recombinant MAO-B expressed in baculovirus infected BTI-TN-5B1-4 insect cells
# [6] = molecular target: T1, Amine oxidase [flavin-containing] B; experiment: Inhibition of human recombinant MAO-B expressed in baculovirus infected BTI-TN-5B1-4 insect cells using p-tyramine as substrate preincubated for 15 mins and measured after 45 mins by Cheng-Prusoff equation analysis
# [7] = molecular target: T4, Amine oxidase [flavin-containing] A (Homo sapiens, UniProt P21397); experiment: biochemical
# T4 sequence (P21397 whole entry): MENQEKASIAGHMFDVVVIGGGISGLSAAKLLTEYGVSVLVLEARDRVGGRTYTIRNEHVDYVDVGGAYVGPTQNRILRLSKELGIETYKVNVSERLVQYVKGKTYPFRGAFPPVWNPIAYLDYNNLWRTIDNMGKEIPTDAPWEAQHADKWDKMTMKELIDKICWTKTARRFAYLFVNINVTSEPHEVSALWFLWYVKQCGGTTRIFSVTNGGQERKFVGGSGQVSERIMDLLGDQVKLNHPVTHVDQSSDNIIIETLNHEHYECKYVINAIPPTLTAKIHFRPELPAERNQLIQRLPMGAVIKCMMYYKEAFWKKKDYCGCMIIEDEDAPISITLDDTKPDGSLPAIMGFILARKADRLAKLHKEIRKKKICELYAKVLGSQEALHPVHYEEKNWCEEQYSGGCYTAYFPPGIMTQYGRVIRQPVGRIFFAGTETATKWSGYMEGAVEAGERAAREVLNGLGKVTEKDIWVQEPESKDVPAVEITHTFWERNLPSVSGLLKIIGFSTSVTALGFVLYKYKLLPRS
# Description: Inhibition of human recombinant MAO-A expressed in baculovirus infected BTI-TN-5B1-4 insect cells using p-tyramine as substrate preincubated for 15 mins and measured after 45 mins by resorufin-based fluorescence assay
# [8] = system: Cortical neurone; experiment: Neuroprotective activity in rat primary cortical neurons neurovascular unit model assessed as increase in survival at 150 to 300 nM after 120 hrs in presence of HBMEC relative to untreated control; format: functional, cell-based
# [9] = system: Cortical neurone; experiment: Neuroprotective activity in rat primary cortical neurons neurovascular unit model assessed as induction of neurite network outgrowth at 150 to 300 nM after 120 hrs in presence of HBMEC relative to untreated control; format: functional, cell-based
# [10] = Kinetic aqueous solubility of compound at 500 uM at pH 5.5 after 90 mins by UV-vis spectrophotometric analysis; format: physicochemical; conditions: buffer; for log(Kinetic_solubility): pH 5.5, 1.5 h, 500 µM; for solubility kinetic at 1.5 h, 500 µM: pH 5.5, read-out: Kinetic_solubility
# [11] = pampa, pH 7.4, 4 h, 10000 µM
# Description: (§1) Effective permeability of the compound in prisma HT buffer at 10 mM at pH 7.4 after 4 hrs by PAMPA
# [12] = buffer, pH 7.4, 1.5 h, 500 µM
# [13] = physchem; conditions: buffer, pH 7.4
# [14] = Kinetic aqueous solubility of compound at 500 uM at pH 2 after 90 mins by UV-vis spectrophotometric analysis; format: physicochemical; conditions: buffer; for log(Kinetic_solubility): pH 2, 1.5 h, 500 µM; for solubility kinetic at 1.5 h, 500 µM: pH 2, read-out: Kinetic_solubility
# [15] = physchem; conditions: n-octanol/water, pH 7.4
# [16] = in vitro; set-up: dose or concentration left out as unconfirmed; conditions: PAMPA, pH 7.4
# Description: as §1
# [17] = system: Cortical neurone; experiment: Neuroprotective activity in rat primary cortical neurons neurovascular unit model assessed as increase in survival at 1 pM to 10 nM after 120 hrs in presence of HBMEC relative to untreated control; format: functional, cell-based
# [18] = system: Cortical neurone; experiment: Neuroprotective activity in rat primary cortical neurons neurovascular unit model assessed as induction of neurite network outgrowth at 1 pM to 10 nM after 120 hrs in presence of HBMEC relative to untreated control; format: functional, cell-based
# [19] = system: Cortical neurone; experiment: Neuroprotective activity in rat primary cortical neurons assessed as induction of neurite network outgrowth at 1 to 10 pM after 120 hrs; format: functional, cell-based
# [20] = system: Cortical neurone; experiment: Neuroprotective activity in rat primary cortical neurons at 0.1 to 1 nM after 120 hrs; format: functional, cell-based
# [21] = system: Cortical neurone; experiment: Neuroprotective activity in rat primary cortical neurons assessed as induction of neurite network outgrowth at 10 to 100 nM after 120 hrs; format: functional, cell-based
# [22] = system: Cortical neurone; experiment: Neuroprotective activity in rat primary cortical neurons assessed as increase in survival at 1 nM after 120 hrs relative to untreated control; format: functional
# [23] = system: Cortical neurone; experiment: Neuroprotective activity in rat primary cortical neurons assessed as increase in survival at 100 nM after 120 hrs relative to untreated control; format: functional
# [24] = molecular target: T1, Amine oxidase [flavin-containing] B; experiment: Reversible inhibition of human recombinant MAO-B expressed in baculovirus infected BTI-TN-5B1-4 insect cells at IC80 using p-tyramine as substrate incubated for 20 mins followed by increase in substrate concentration up to 1 mM and measured after 300 mins by fluorescence assay
smiles,measurement,setting,value
CC(=O)N[C@H]1CC(=O)N(c2ccc(OCc3cccc(F)c3)cc2)C1 [SEMBRAGILINE],pIC50,[1],8.23
same,Ratio IC50,[2],653
same,pIC50,[3],5.11
same,pIC50,[4],7.83
O=C(Nc1cc2cc[nH]c2cn1)c1ccc(F)c(F)c1,Ratio IC50,[5],1.1
same,Ratio IC50,[2],> 36
same,pKi,[6],6.91
same,pIC50,[4],5.89
O=C(Nc1ccc2[nH]ncc2c1)c1cccc(Cl)c1Cl,pKi,[6],5.94
O=C(Nc1ccc2[nH]ccc2n1)c1ccc(F)c(F)c1,Ratio IC50,[5],1.1
same,Ratio IC50,[2],> 217
same,pKi,[6],7.69
same,pIC50,[7],< 5.00
C[C@]12CC[C@@H]3c4ccc(O)cc4CC[C@H]3[C@@H]1CC[C@@H]2O,Activity,[8],Active
same,Activity,[9],Active
O=C(Nc1ccc2[nH]ncc2c1)c1c(F)cccc1Cl,pKi,[6],5.84
O=C(Cc1ccc(Cl)c(Cl)c1)Nc1ccc2[nH]ccc2c1,pKi,[6],6.41
O=C(Nc1cc2cc[nH]c2cn1)c1ccc(Cl)c(Cl)c1,log(Kinetic_solubility),[10],-4.16
same,"solubility kinetic at 1.5 h, 500 µM",[10],68.8 µM
same,log(permeability),[11],-3.96
same,log(Kinetic_solubility),[12],-4.19
same,Ratio IC50,[5],1.1
same,pIC50,[1],7.54
same,Ratio IC50,[2],> 346
same,"solubility kinetic at 1.5 h, 500 µM",[13],65.1 µM
same,log(Kinetic_solubility),[14],-3.37
same,"solubility kinetic at 1.5 h, 500 µM",[14],426 µM
same,pKi,[6],7.89
same,logD at 1.5 h,[15],3.04
same,Papp at 4 h,[16],111 ×10⁻⁶ cm/s
same,pIC50,[7],< 5.00
O=C(Nc1ccc2[nH]ncc2c1)c1ccc(Cl)c(Cl)c1,pKi,[6],8.26
O=C(Nc1ccc2[nH]ccc2n1)c1ccc(Cl)c(Cl)c1,log(Kinetic_solubility),[10],-4.37
same,"solubility kinetic at 1.5 h, 500 µM",[10],42.9 µM
same,log(permeability),[11],-3.97
same,log(Kinetic_solubility),[12],-4.4
same,Activity,[17],Active
same,"solubility kinetic at 1.5 h, 500 µM",[13],39.8 µM
same,log(Kinetic_solubility),[14],-3.33
same,"solubility kinetic at 1.5 h, 500 µM",[14],471 µM
same,Activity,[18],Active
same,Activity,[19],Active
same,logD at 1.5 h,[15],3.19
same,Activity,[20],Active
same,Papp at 4 h,[16],107 ×10⁻⁶ cm/s
same,pIC50,[7],< 5.00
same,Activity,[21],inactive
same,Efficacy,[22],31%
same,Efficacy,[23],11%
O=C(Nc1cc2cc[nH]c2cn1)c1ccc(F)c(Cl)c1,Ratio IC50,[5],1.1
same,Ratio IC50,[2],> 138
same,pKi,[6],7.50
same,pIC50,[3],< 5.00
same,pIC50,[7],< 5.00
O=C(Nc1ccc2[nH]ccc2n1)c1ccc(Cl)c(F)c1,log(Kinetic_solubility),[10],-4.09
same,"solubility kinetic at 1.5 h, 500 µM",[10],82.1 µM
same,log(permeability),[11],-3.9
same,log(Kinetic_solubility),[12],-4.03
same,Ratio IC50,[5],1.1
same,Ratio IC50,[2],> 917
same,"solubility kinetic at 1.5 h, 500 µM",[13],93.8 µM
same,log(Kinetic_solubility),[14],-3.41
same,"solubility kinetic at 1.5 h, 500 µM",[14],391 µM
same,pKi,[6],8.32
same,logD at 1.5 h,[15],2.69
same,Papp at 4 h,[16],127 ×10⁻⁶ cm/s
same,pIC50,[7],< 5.00
O=C(Nc1ccc2[nH]ccc2n1)c1ccc(F)c(Cl)c1,log(Kinetic_solubility),[10],-3.96
same,"solubility kinetic at 1.5 h, 500 µM",[10],111 µM
same,log(permeability),[11],-3.96
same,log(Kinetic_solubility),[12],-3.92
same,Ratio IC50,[5],1.1
same,inhibition (INH),[24],Active
same,Ratio IC50,[2],> 3060
same,"solubility kinetic at 1.5 h, 500 µM",[13],119 µM
same,log(Kinetic_solubility),[14],-3.33
same,"solubility kinetic at 1.5 h, 500 µM",[14],501 µM
same,pKi,[6],8.84
same,logD at 1.5 h,[15],2.32
same,Papp at 4 h,[16],110 ×10⁻⁶ cm/s
same,pIC50,[7],< 5.00
O=C(Nc1cc2cc[nH]c2cn1)c1ccc(Cl)c(F)c1,Ratio IC50,[5],1.1
same,pIC50,[1],6.92
same,Ratio IC50,[2],> 82
same,pKi,[6],7.27
same,pIC50,[3],< 5.00
same,pIC50,[7],< 5.00
same,pIC50,[4],6.24

# Source: ChEMBL document CHEMBL4382265, “(Pyrrolo-pyridin-5-yl)benzamides: BBB permeable monoamine oxidase B inhibitors with neuroprotective effect on cortical neurons” (Eur J Med Chem, 2019)
